Measured values published in patent US20260355196A1, “INHIBITORS AND DEGRADERS OF PIP4K PROTEIN” (Larkspur Biosciences, Inc., priority 2023, published 2026).

biological target: T1, PIP4K2C (Homo sapiens, UniProt Q8TBX8); experiment: HiBiT PIP4K2C degradation assay in MOLT-4 cells (endogenous PIP4K2C C-terminally tagged with HiBiT); type: cell-based; parameters: untagged in primary human PBMCs and monocyte-derived dendritic cells; settings: 6 hours of incubation time, rather than 24 hours; MOLT-4, top concentration 10 micromolar; read-out: HiBIT-degradation MOLT4 PIP4k2C DC50 (6 hours, marked *)
T1 sequence (Q8TBX8 1-421): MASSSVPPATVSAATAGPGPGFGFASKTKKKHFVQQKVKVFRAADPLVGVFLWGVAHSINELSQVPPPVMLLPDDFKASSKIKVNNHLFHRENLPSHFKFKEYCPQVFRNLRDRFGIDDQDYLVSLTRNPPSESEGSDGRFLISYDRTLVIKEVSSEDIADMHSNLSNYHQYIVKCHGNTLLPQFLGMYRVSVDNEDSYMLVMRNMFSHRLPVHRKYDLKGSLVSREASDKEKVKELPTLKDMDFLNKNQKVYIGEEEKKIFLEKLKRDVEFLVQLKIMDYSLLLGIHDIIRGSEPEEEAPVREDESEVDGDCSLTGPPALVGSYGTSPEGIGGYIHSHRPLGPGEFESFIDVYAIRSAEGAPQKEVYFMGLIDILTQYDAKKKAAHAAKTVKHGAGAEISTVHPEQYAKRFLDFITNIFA
How it was run: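 Endogenous PIP4K2C was C-terminally HiBiT-tagged by CRISPR-Cas9 in MOLT-4 cells, which were treated with a 10-point, 3-fold dilution series from 10 micromolar in duplicate for 24 or 6 hours at 37 C. Remaining protein was read by HiBiT lytic luminescence, and DC50 came from a Hill fit.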

Compound | DC50 [µM]
O=C1CCC(Nc2ccc(C3CCN(CC4(O)CCN(C(=O)[C@H]5CC[C@H](Nc6ncc(F)c(-c7cccc(C(=O)N8CC[C@H](O)C8)c7)n6)CC5)CC4)CC3)c(F)c2)C(=O)N1 (stereo partly drawn) [Compound 481, trans-3-((3-fluoro-4-(1-((1-(4-((5-fluoro-4-(3-((S)-3-hydroxypyrrolidine-1-carbonyl)phenyl)pyrimidin-2-yl)amino)cyclohexane-1-carbonyl)-4-hydroxypiperidin-4-yl)methyl)piperidin-4-yl)phenyl)amino)piperidine-2,6-dione] | < 0.5
O=C1CCC(Nc2ccc(C3CCN(CC4(O)CCN(C(=O)[C@H]5CC[C@H](Nc6ncc(F)c(-c7cccc(-n8ccccc8=O)c7)n6)CC5)CC4)CC3)c(F)c2)C(=O)N1 (stereo partly drawn) [Compound 409, trans-3-((3-fluoro-4-(1-((1-(-4-((5-fluoro-4-(3-(2-oxopyridin-1(2H)-yl)phenyl)pyrimidin-2-yl)amino)cyclohexane-1-carbonyl)-4-hydroxypiperidin-4-yl)methyl)piperidin-4-yl)phenyl)amino)piperidine-2,6-dione] | < 0.5
O=C1CCC(Nc2ccc(C3CCN(C[C@H]4CC[C@H](C(=O)N5CCC(Nc6ncc(F)c(-c7cccc(N8CCCCC8=O)c7)n6)CC5)CC4)CC3)c(F)c2)C(=O)N1 (stereo partly drawn) [Compound 685, 3-((3-fluoro-4-(1-((trans-4-(4-((5-fluoro-4-(3-(2-oxopiperidin-1-yl)phenyl)pyrimidin-2-yl)amino)piperidine-1-carbonyl)cyclohexyl)methyl)piperidin-4-yl)phenyl)amino)piperidine-2,6-dione] | < 0.5
O=C1CCC(Nc2ccc(N3CCN(CC4CCN(C(=O)[C@H]5CC[C@H](Nc6ncc(F)c(-c7cccc(-c8ccccc8)c7)n6)CC5)CC4)CC3)c(F)c2)C(=O)N1 (stereo partly drawn) [Compound 485, trans-3-((4-(4-((1-(4-((4-([1,1′-biphenyl]-3-yl)-5-fluoropyrimidin-2-yl)amino)cyclohexane-1-carbonyl)piperidin-4-yl)methyl)piperazin-1-yl)-3-fluorophenyl)amino)piperidine-2,6-dione] | < 0.5
O=C1CCC(Nc2ccc(C3CCN(CC4CCN(C(=O)[C@H]5CC[C@H](Nc6ncc(F)c(-c7cccc(C(=O)N8CC[C@H](O)C8)c7)n6)CC5)CC4)CC3)c(F)c2)C(=O)N1 (stereo partly drawn) [Compound 468, trans-3-((3-fluoro-4-(1-((1-(4-((5-fluoro-4-(3-((S)-3-hydroxypyrrolidine-1-carbonyl)phenyl)pyrimidin-2-yl)amino)cyclohexane-1-carbonyl)piperidin-4-yl)methyl)piperidin-4-yl)phenyl)amino)piperidine-2,6-dione] | < 0.5
O=C1CCC(Nc2ccc(N3CCC(CC4CCN(C(=O)[C@H]5CC[C@H](Nc6ncc(F)c(-c7cccc(N8CCCCC8=O)c7)n6)CC5)CC4)CC3)c(F)c2)C(=O)N1 (stereo partly drawn) [Compound 414, trans-3-((3-fluoro-4-(4-((1-(-4-((5-fluoro-4-(3-(2-oxopiperidin-1-yl)phenyl)pyrimidin-2-yl)amino)cyclohexane-1-carbonyl)piperidin-4-yl)methyl)piperidin-1-yl)phenyl)amino)piperidine-2,6-dione] | < 0.5

Results, then the compound that gave them:

DC50 [µM] | Compound
< 0.5 | O=C1CCC(Nc2ccc(C3CCN([C@H]4CC[C@H](NC(=O)[C@H]5CC[C@H](Nc6ncc(F)c(-c7cccc(N8CCCOC8=O)c7)n6)CC5)CC4)CC3)c(F)c2)C(=O)N1 (stereo partly drawn) [Compound 563, trans-N-(trans-4-(4-(4-((2,6-dioxopiperidin-3-yl)amino)-2-fluorophenyl)piperidin-1-yl)cyclohexyl)-4-((5-fluoro-4-(3-(2-oxo-1,3-oxazinan-3-yl)phenyl)pyrimidin-2-yl)amino)cyclohexane-1-carboxamide]
< 0.5 | O=C1CCC(Nc2ccc(N3CCC(N4CCC(C(=O)N[C@H]5CC[C@H](Nc6ncc(F)c(-c7cccc(N8CCCOC8=O)c7)n6)CC5)CC4)C(F)(F)C3)c(F)c2)C(=O)N1 (stereo partly drawn) [Compound 500, trans-1′-(4-((2,6-dioxopiperidin-3-yl)amino)-2-fluorophenyl)-3′,3′-difluoro-N-(4-((5-fluoro-4-(3-(2-oxo-1,3-oxazinan-3-yl)phenyl)pyrimidin-2-yl)amino)cyclohexyl)-[1,4′-bipiperidine]-4-carboxamide]
< 0.5 | O=C1CC[C@@H](Nc2ccc(N3CCC(N4CCC(C(=O)N[C@H]5CC[C@H](Nc6ncc(F)c(-c7cccc(N8CCCOC8=O)c7)n6)CC5)CC4)CC3)c(F)c2)C(=O)N1 [Compound 543, 1′-(4-(((R)-2,6-dioxopiperidin-3-yl)amino)-2-fluorophenyl)-N-((trans)-4-((5-fluoro-4-(3-(2-oxo-1,3-oxazinan-3-yl)phenyl)pyrimidin-2-yl)amino)cyclohexyl)-[1,4′-bipiperidine]-4-carboxamide]

same assay, conditions: 24 hours incubation, MOLT-4, top concentration 10 micromolar; read-out: HiBIT-degradation MOLT4 PIP4k2C 24 hours DC50

DC50 [µM] | Compound
< 0.5 | O=C1CCC(Nc2ccc(C3CCN(CCC4(O)CCN(C(=O)[C@H]5CCC[C@@H](Nc6ncc(F)c(-c7cccc(-n8ccccc8=O)c7)n6)C5)CC4)CC3)c(F)c2)C(=O)N1 (relative stereo) [Compound 348, cis-3-((3-fluoro-4-(1-(2-(1-(3-((5-fluoro-4-(3-(2-oxopyridin-1(2H)-yl)phenyl)pyrimidin-2-yl)amino)cyclohexane-1-carbonyl)-4-hydroxypiperidin-4-yl)ethyl)piperidin-4-yl)phenyl)amino)piperidine-2,6-dione]
1 to 5 | O=C1CCC(n2c(=O)oc3cc(N4CCC(CCN5CCC(C(=O)N[C@H]6CC[C@H](Nc7ncc(F)c(-c8cccc(-n9ccccc9=O)c8)n7)CC6)CC5)CC4)ccc32)C(=O)N1 (stereo partly drawn) [Compound 329, trans-1-[2-[1-[3-(2,6-dioxo-3-piperidyl)-2-oxo-1,3-benzoxazol-6-yl]-4-piperidyl]ethyl]-N-[4-[[5-fluoro-4-[3-(2-oxo-1-pyridyl)phenyl]pyrimidin-2-yl]amino]cyclohexyl]piperidine-4-carboxamide]
< 0.5 | O=C1CCC(Nc2ccc(C3CCN(CCC4CCN(C(=O)[C@H]5CCC[C@@H](Nc6ncc(F)c(-c7cccc(-n8ccccc8=O)c7)n6)C5)CC4)CC3(F)F)c(F)c2)C(=O)N1 (stereo partly drawn) [Compound 311, 3-((4-(3,3-difluoro-1-(2-(1-((1S,3R)-3-((5-fluoro-4-(3-(2-oxopyridin-1(2H)-yl)phenyl)pyrimidin-2-yl)amino)cyclohexane-1-carbonyl)piperidin-4-yl)ethyl)piperidin-4-yl)-3-fluorophenyl)amino)piperidine-2,6-dione]
< 0.5 | O=C1CCC(Nc2ccc(N3CCN([C@H]4CC[C@H](C(=O)N[C@H]5CC[C@H](Nc6ncc(F)c(-c7cccc(-n8ccccc8=O)c7)n6)CC5)CC4)CC3)c(F)c2)C(=O)N1 (stereo partly drawn) [Compound 319, trans-trans-4-(4-(4-((2,6-dioxopiperidin-3-yl)amino)-2-fluorophenyl)piperazin-1-yl)-N-(4-((5-fluoro-4-(3-(2-oxopyridin-1(2H)-yl)phenyl)pyrimidin-2-yl)amino)cyclohexyl)cyclohexane-1-carboxamide]
< 0.5 | O=C1CCC(n2c(=O)oc3cc(N4CCC(CN5CCN(CC(=O)N6CCC(Nc7ncc(F)c(-c8cccc(-n9ccccc9=O)c8)n7)CC6)CC5)CC4)ccc32)C(=O)N1 (centres unmarked) [Compound 378, 3-(6-(4-((4-(2-(4-((5-fluoro-4-(3-(2-oxopyridin-1(2H)-yl)phenyl)pyrimidin-2-yl)amino)piperidin-1-yl)-2-oxoethyl)piperazin-1-yl)methyl)piperidin-1-yl)-2-oxobenzo[d]oxazol-3 (2H)-yl)piperidine-2,6-dione]
